The test system of assay [1] is Human TG/HA-VSMC cells. As to the kind of experiment: Human TG/HA-VSMC proliferation assay (PDGF-BB, CellTiter-Glo). It is filed as cell-based. To be noted: Biological data table, PDGF-BB stimulated. The procedure:
Human TG/HA-VSMC Proliferation Assay
Human TG/HA-VSMC cells (ATCC) were resuspended in DMEM supplemented with 1% FBS and 30 ng/mL recombinant human PDGF-BB at 60,000 cells/mL. The cells were aliquoted into 384 well plates at 50 μL/well and incubated for 4 hours at 37° C. in a humidified incubator in the presence of 5% carbon dioxide. 0.5 μL of test compound diluted in DMSO was added to each well. The plates were returned to the incubator for a further 68 hours. 25 μL of CellTiter-Glo (Promega) was added to each well and the plates were incubated on the bench for 15 minutes. Luminescence was then read using a CLIPR CCD camera (Molecular Devices).
In general terms: Cellular ATP, detected with luciferase, serves as a proxy for viable cell number.

Assay [2] deals with Mo7e cells which endogenously express c-kit. Nature of the assay: Mo7e assay: inhibition of SCF dependent proliferation (MTT). It is filed as cell-based. The method in brief: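 Mo7e cells stimulated with human recombinant SCF and exposed to two-fold serial compound dilutions from a top concentration of 10 μM. After 48 h at 37 °C, viability measured by MTT colorimetric assay; IC50 derived.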

Setting [3] is: Mo7e, Biological data table (selectivity c-kit over PDGFR).
Where [4] appears, read: Table 1, SCF stimulated Mo7e cells, 48 hours, MTT.

Consider 30 compounds from patent publication US8278452B2, “Heterocyclic compounds and compositions as c-kit and PDGFR kinase inhibitors” (IRM LLC, priority 2008, dated 2012).

The IC50 is the midpoint of a concentration-inhibition curve. A higher IC50 goes with weaker potency. For `Cc1cc2c(cn1)cc(-c1cc(Nc3cc(-c4nccs4)on3)ccc1C)c(=O)n2C` [Compound D9, 1,7-dimethyl-3-(2-methyl-5-(5-(thiazol-2-yl)isoxazol-3-ylamino)phenyl)-1,6-naphthyridin-2(1H)-one], the results for the half-maximal inhibitory concentration (IC50) in assay [1], in assay [2] (setting [3]) and in assay [2] (setting [4]) were 1070 nM, 141 nM and 141 nM, respectively. In the case of `Cc1cc2c(cn1)cc(-c1cc(Nc3cc(-c4nccs4)no3)ccc1C)c(=O)n2C` [Compound F1, 1,7-dimethyl-3-(2-methyl-5-(3-(thiazol-2-yl)isoxazol-5-ylamino)phenyl)-1,6-naphthyridin-2(1H)-one], the IC50 came out at 2140 nM in assay [1], 111 nM in assay [2] (setting [3]) and 111 nM in assay [2] (setting [4]). On to `Cc1ccc(-c2nnc(Nc3ccc(C)c(-c4cc5cnc(C)cc5n(C)c4=O)c3)o2)cc1` [Compound B1, 1,7-dimethyl-3-(2-methyl-5-{[5-(4-methylphenyl)-1,3,4-oxadiazol-2-yl]amino}phenyl)-1,2-dihydro-1,6-naphthyridin-2-one], for which the figures for the IC50 in assay [1], in assay [2] (setting [3]) and in assay [2] (setting [4]) were 2260 nM, 76 nM and 76 nM, respectively. Consider `Cc1cc2c(cn1)cc(-c1cc(Nc3nnc(-c4ccccc4)[nH]3)ccc1C)c(=O)n2C` [Compound C6, 1,7-dimethyl-3-(2-methyl-5-(5-phenyl-4H-1,2,4-triazol-3-ylamino)phenyl)-1,6-naphthyridin-2(1H)-one], for which the 50% inhibitory concentration (IC50) in assay [1] is 3390 nM; in assay [2] (setting [3]), 335 nM; in assay [2] (setting [4]), 335 nM.

For `CCOCc1nc(Nc2ccc(C)c(-c3cc4cnc(C)cc4n(C)c3=O)c2)no1` [Compound A74, 3-(5-{[5-(ethoxymethyl)-1,2,4-oxadiazol-3-yl]amino}-2-methylphenyl)-1,7-dimethyl-1,2-dihydro-1,6-naphthyridin-2-one], in assay [2] (setting [4]), the IC50 came to 296 nM.

Compound `Cc1cc2c(cn1)cc(-c1cc(Nc3noc(C(C)C)n3)ccc1C)c(=O)n2C` [Compound A6, 3-(5-(5-isopropyl-1,2,4-oxadiazol-3-ylamino)-2-methylphenyl)-1,7-dimethyl-1,6-naphthyridin-2(1H)-one] had a half-maximal inhibitory concentration (IC50) in assay [2] (setting [4]) of 34 nM. Same read-out and setting: in the case of `CCc1cc2c(cn1)cc(-c1cc(Nc3noc(C(C)C)n3)ccc1C)c(=O)n2C` [Compound A104, 7-ethyl-3-(5-(5-isopropyl-1,2,4-oxadiazol-3-ylamino)-2-methylphenyl)-1-methyl-1,6-naphthyridin-2(1H)-one] it was 88 nM; in that of `Cc1cc2c(cn1)cc(-c1cc(Nc3noc(C4(C)COC4)n3)ccc1C)c(=O)n2C` [Compound A65, 1,7-dimethyl-3-(2-methyl-5-{[5-(3-methyloxetan-3-yl)-1,2,4-oxadiazol-3-yl]amino}phenyl)-1,2-dihydro-1,6-naphthyridin-2-one], 413 nM. On the same count and under the same terms, in the case of `CO[C@@H](C)c1nc(Nc2ccc(C)c(-c3cc4cnc(C)cc4n(C)c3=O)c2)no1` [Compound A76, (S)-3-(5-(5-(1-methoxyethyl)-1,2,4-oxadiazol-3-ylamino)-2-methylphenyl)-1,7-dimethyl-1,6-naphthyridin-2(1H)-one] it was 142 nM; in that of `Cc1cc2c(cn1)cc(-c1cc(Nc3noc(-c4ccc(Cl)cc4Cl)n3)ccc1C)c(=O)n2C` [Compound A82, 3-(5-{[5-(2,4-dichlorophenyl)-1,2,4-oxadiazol-3-yl]amino}-2-methylphenyl)-1,7-dimethyl-1,2-dihydro-1,6-naphthyridin-2-one], 262 nM; in that of `Cc1cc2c(cn1)cc(-c1cc(Nc3noc(C(C)Oc4ccccc4)n3)ccc1C)c(=O)n2C` (centres unmarked) [Compound A96, 1,7-dimethyl-3-(2-methyl-5-{[5-(1-phenoxyethyl)-1,2,4-oxadiazol-3-yl]amino}phenyl)-1,2-dihydro-1,6-naphthyridin-2-one], 419 nM. Take `Cc1cc2c(cn1)cc(-c1cc(Nc3noc(C4CCCCO4)n3)ccc1C)c(=O)n2C` (centres unmarked) [Compound A85, 1,7-dimethyl-3-(2-methyl-5-{[5-(oxan-2-yl)-1,2,4-oxadiazol-3-yl]amino}phenyl)-1,2-dihydro-1,6-naphthyridin-2-one]: in assay [2] (setting [4]), the 50% inhibitory concentration (IC50) was found to be 79 nM.

`Cc1cc2c(cn1)cc(-c1cc(Nc3cc(-c4ccccc4)on3)ccc1C)c(=O)n2C` [Compound D1, 1,7-dimethyl-3-(2-methyl-5-(5-phenylisoxazol-3-ylamino)phenyl)-1,6-naphthyridin-2(1H)-one] displayed an IC50 in assay [2] (setting [4]) of 68 nM. The same measure, in the same setting: in the case of `Cc1cc2c(cn1)cc(-c1cc(Nc3nnc(-c4cccc(Cl)c4)[nH]3)ccc1C)c(=O)n2C` [Compound C7, 3-(5-{[5-(3-chlorophenyl)-4H-1,2,4-triazol-3-yl]amino}-2-methylphenyl)-1,7-dimethyl-1,2-dihydro-1,6-naphthyridin-2-one] it was 378 nM; in that of `Cc1cc2c(cn1)cc(-c1cc(Nc3cc(-c4ccc(OC(F)(F)F)cc4)on3)ccc1C)c(=O)n2C` [Compound D2], 428 nM.

`Cc1cc2c(cn1)cc(-c1cc(Nc3noc(-c4cccnc4)n3)ccc1C)c(=O)n2C` [Compound A10, 1,7-dimethyl-3-(2-methyl-5-{[5-(pyridin-3-yl)-1,2,4-oxadiazol-3-yl]amino}phenyl)-1,2-dihydro-1,6-naphthyridin-2-one]: in assay [2] (setting [4]), the 50% inhibitory concentration (IC50) was found to be 145 nM.

For `Cc1cc2c(cn1)cc(-c1cc(Nc3noc(-c4ccc(F)cc4F)n3)ccc1C)c(=O)n2C` [Compound A61, 3-(5-{[5-(2,4-difluorophenyl)-1,2,4-oxadiazol-3-yl]amino}-2-methylphenyl)-1,7-dimethyl-1,2-dihydro-1,6-naphthyridin-2-one], the concentration for half-maximal inhibition (IC50) in assay [2] (setting [4]) was 97 nM. On the same count and under the same terms, in the case of `Cc1cc2c(cn1)cc(-c1cc(Nc3noc(C4CCCCC4)n3)ccc1C)c(=O)n2C` [Compound A18, 3-{5-[(5-cyclohexyl-1,2,4-oxadiazol-3-yl)amino]-2-methylphenyl}-1,7-dimethyl-1,2-dihydro-1,6-naphthyridin-2-one] it was 179 nM; in that of `Cc1cc2c(cn1)cc(-c1cc(Nc3nnc(-c4ccc(Cl)cc4)o3)ccc1C)c(=O)n2C` [Compound B3, 3-(5-{[5-(4-chlorophenyl)-1,3,4-oxadiazol-2-yl]amino}-2-methylphenyl)-1,7-dimethyl-1,2-dihydro-1,6-naphthyridin-2-one], 88 nM.

For `Cc1cc2c(cn1)cc(-c1cc(Nc3noc([C@H]4C[C@@](C)(O)C4)n3)ccc1C)c(=O)n2C` [Compound A101, 3-(5-{[5-(3-hydroxy-3-methylcyclobutyl)-1,2,4-oxadiazol-3-yl]amino}-2-methylphenyl)-1,7-dimethyl-1,2-dihydro-1,6-naphthyridin-2-one], the half-maximal inhibitory concentration (IC50) in assay [2] (setting [4]) came to 205 nM.

In the case of `Cc1cc2c(cn1)cc(-c1cc(Nc3noc(C(O)C(C)C)n3)ccc1C)c(=O)n2C` (stereo in doubt) [Compound A92, (R)-3-(5-(5-(1-hydroxy-2-methylpropyl)-1,2,4-oxadiazol-3-ylamino)-2-methylphenyl)-1,7-dimethyl-1,6-naphthyridin-2(1H)-one], in assay [2] (setting [4]), half-maximal inhibition (IC50) required 104 nM.

Consider `Cc1cc2c(cn1)cc(-c1cc(Nc3nnc(C4CCCC4)[nH]3)ccc1C)c(=O)n2C` [Compound C1, 3-(5-(5-cyclopentyl-4H-1,2,4-triazol-3-ylamino)-2-methylphenyl)-1,7-dimethyl-1,6-naphthyridin-2(1H)-one], for which the IC50 in assay [2] (setting [4]) is 120 nM.

Turning to `COc1ccc(-c2nc(Nc3ccc(C)c(-c4cc5cnc(C)cc5n(C)c4=O)c3)no2)cn1` [Compound A87, 3-(5-{[5-(6-methoxypyridin-3-yl)-1,2,4-oxadiazol-3-yl]amino}-2-methylphenyl)-1,7-dimethyl-1,2-dihydro-1,6-naphthyridin-2-one], the IC50 in assay [2] (setting [4]) was 95 nM. In turn, `Cc1cc2c(cn1)cc(-c1cc(Nc3nnc(C4CCCCC4)[nH]3)ccc1C)c(=O)n2C` [Compound C3, 3-{5-[(5-cyclohexyl-4H-1,2,4-triazol-3-yl)amino]-2-methylphenyl}-1,7-dimethyl-1,2-dihydro-1,6-naphthyridin-2-one] displayed an IC50 in assay [2] (setting [4]) of 279 nM. Same read-out and setting: then `Cc1cc2c(cn1)cc(-c1cc(Nc3noc(-c4ccc(F)cc4Cl)n3)ccc1C)c(=O)n2C` [Compound A81, 3-(5-{[5-(2-chloro-4-fluorophenyl)-1,2,4-oxadiazol-3-yl]amino}-2-methylphenyl)-1,7-dimethyl-1,2-dihydro-1,6-naphthyridin-2-one], with 237 nM. Same read-out and setting: in the case of `Cc1cc2c(cn1)cc(-c1cc(Nc3cc(-c4ccc(F)cc4Cl)on3)ccc1C)c(=O)n2C` [Compound D8] it was 361 nM; in that of `CC(=O)c1ccccc1-c1nc(Nc2ccc(C)c(-c3cc4cnc(C)cc4n(C)c3=O)c2)no1` [Compound A94, 3-(5-{[5-(2-acetylphenyl)-1,2,4-oxadiazol-3-yl]amino}-2-methylphenyl)-1,7-dimethyl-1,2-dihydro-1,6-naphthyridin-2-one], 258 nM. On the same count and under the same terms, then `Cc1cc2c(cn1)cc(-c1cc(Nc3noc(C(C)(C)C)n3)ccc1C)c(=O)n2C` [Compound A30, 3-{5-[(5-tert-butyl-1,2,4-oxadiazol-3-yl)amino]-2-methylphenyl}-1,7-dimethyl-1,2-dihydro-1,6-naphthyridin-2-one], with 245 nM; and `Cc1cc2c(cn1)cc(-c1cc(Nc3cc(-c4ccc(Cl)cc4Cl)on3)ccc1C)c(=O)n2C` [Compound D7], with 401 nM; and `Cc1cc2c(cn1)cc(-c1cc(Nc3noc(C4(O)CC4)n3)ccc1C)c(=O)n2C` [Compound A57, 3-(5-(5-(1-hydroxycyclopropyl)-1,2,4-oxadiazol-3-ylamino)-2-methylphenyl)-1,7-dimethyl-1,6-naphthyridin-2(1H)-one], with 185 nM.
